Measurements reported in patent publication US20030152523A1, “Pharmaceutical composition for pulmonary delivery” (priority 2000, published 2003).

Key:
[1] = Particle size analysis by laser diffraction (Malvern 2600); type: physicochemical; details: BDP dispersed in 1% (w/v) span 85 in cyclohexane
Protocol: 3 Particle Size Analysis:
The particle size of both micronised BDP and spray dried BDP was determined in a liquid medium by laser diffraction, according to an independent model, using a Malvern 2600 laser diffraction sizer (Malvern Instruments, Malvern, Worcs, UK). BDP was measured using a 63 mm lens, after dispersion in a solution of 1% (w/v) span 85 in cyclohexane, saturated with the drug. Each sample was measured in triplicate.

[2] = In-vitro deposition of BDP from dry powder formulations aerosolised via Rotahaler into a twin stage impinger (TSI); type: physicochemical; details: TSI at 60 L/min, drug in lower stage of TSI
Text: It was the aim of the current study to attempt to reduce the hydrophobic interaction that exists between BDP particles. Such interaction induces aggregate formation and potentially limits the fine particle dose available for pulmonary delivery. The objectives were to adsorb hydrophilic polymer to individual drug particles and to prepare a model dry powder formulation containing modified drug and lactose. A suspension of 1% w/v BDP in water containing either 0.05% or 0.1% PVA ((MWt 9-10 kDA) was spray dried to produce particles (volume mean diameter (VMD) 4.2 μm as determined by an Aerosizer time of flight particle sizing apparatus obtained from Amherst Process Instruments, Hadley, Mass., USA) suitable for intended delivery to the lung. The micronised drug (VMD […]) or spray dried drug was blended with lactose in a ratio 1:67.5 parts by weight and the resultant formulations filled into gelatin capsules for arosolisation via a Rotahaler device to a twin stage impinger (TSI) operated at 60 L min^−1. The Fine Particle Dose (FPD) (as determined from by the amount of drug reaching the lower stage of the TSI) was increased from 20.2 μg when micronised drug was employed to 46.7 μg when the lower PVA concentration was employed. […] The concentration of BDP was determined from calibration curves constructed using the standard solutions of BDP. […]

CCC(=O)OCC(=O)[C@@]1(OC(=O)CC)[C@@H](C)C[C@H]2[C@@H]3CCC4=CC(=O)C=C[C@]4(C)[C@@]3(Cl)[C@@H](O)C[C@@]21C [micronised BDP, beclomethasone dipropionate]
Volume mean diameter VMD(GSD) [1]: 5.18 (1.00) μm | Fine particle dose (FPD) of BDP [2]: 20.2 µg
